Experimental data as given in patent US20130217735A1, “FUNGICIDAL COMPOSITIONS AND METHODS OF USE” (Agri-Food and BioSciences Institute, priority 2010, published 2013).
Like-named read-outs stand apart in the source and are kept apart here.

Key:
F. coeruleum [1] = test: Example 7 sensitivity testing of potato tuber pathogens to thiabendazole derivatives; format: cell-based; details: Trial B; for inhibition at 25 µM / inhibition at 250 µM: read-out: Inhibition (%) of mycelial growth
Procedure: (§1) In vitro tests of the IL thiabendazolium docusate were performed in comparison to the neutral fungicide using selected isolates of Fusarium spp., the cause of potato dry rot. F. coeruleum and F. culmorum are sensitive to thiabendazole whereas isolates of F. sambucinum are frequently resistant. Isolates of Phoma spp., the cause of gangrene, and Phytophthora erythroseptica, the cause of pink rot, were also tested. All except F. sambucinum ex SASA were isolated in a laboratory. F. sambucinum ex SASA was supplied by SASA (Science and Advice for Scottish Agriculture, Roddinglaw Road, Edinburgh, EH12 9F, UK).
(§2) In each test three replicate plates for each organism per concentration were used and tests were repeated at least once.

F. culmorum [2] = test: as above; format: cell-based; details: isolate F. culmorum P13, Trial B
Procedure: as §1, §2

F. sambucinum = test: as above; format: cell-based; details: Trial B; for inhibition at 25 µM / inhibition at 250 µM: Fusarium sambucinum, read-out: Inhibition (%) of mycelial growth
Procedure: as §1, §2

Phoma exigua = test: as above; format: cell-based; details: isolate Phoma exigua 9.1, Trial B
Procedure: as §1, §2

Phoma foveata = test: as above; format: cell-based; details: isolate Phoma foveata BL2 05 T3, Trial B
Procedure: as §1, §2

[3] = system: Phytophthora erythroseptica; test: as above; format: cell-based; details: for Inhibition (%) of mycelial growth / inhibition at 25 µM / inhibition at 250 µM: Trial B; for inhibition at 25 µM / inhibition at 250 µM: Phytophthora erythroseptica, read-out: Inhibition (%) of mycelial growth
Procedure: as §1, §2

F. culmorum [4] = test: Example 5 agar plate mycelial growth test of TBZ derivatives; format: cell-based; details: isolate F. culmorum P13, Trial A
F. sulphureum = test: as above; details: 5-7 days, TBZ docusate Trial A; for Inhibition (%) of mycelial growth: isolate F. sulphureum ex SASA
Procedure: (§3) Both TBZ docusate and TBZ stearate were tested at final concentrations of 250 μm and 25 μm in agar. To prepare the TBZ docusate stock solution for 250 μm, 0.155 g of TBZ docusate prepared according to Trial A was added to a 10 mL volumetric flask and was dissolved in 10 mL of ethanol. The solution was mixed thoroughly. To prepare the TBZ docusate stock solution for 25 μm, 1 ml of the above stock solution was pipetted into a second 10 mL flask and 10 mL ethanol was added. The solution was mixed thoroughly. To prepare the TBZ stearate stock solution for 250 μm, 0.121 g of TBZ stearate was added to a 10 mL volumetric flask and was dissolved in 10 mL ethanol. The solution was mixed thoroughly. To prepare the TBZ stearate stock solution for 25 μm, 1 mL of the 250 μm TBZ stearate stock solution was pipetted into a second 10 mL flask and 10 mL ethanol was added. The solution was mixed thoroughly.
(§4) The agar was prepared and autoclaved. Potato dextrose agar (PDA) was used for the Fusarium species and Phytophthora erythroseptica and malt agar was used for the Phoma species. The agar was allowed to cool to 50° C. Each of the stock solutions was added to the agar at the rate of 10 mL stock solution per liter of agar to give the two final concentrations, for both TBZ stearate and docusate, in agar. Also prepared were a 1% ethanol control (10 mL per liter of agar) and an untreated agar as a second control. The plates were prepared in triplicate for each concentration.
(§5) For each pathogen isolate tested, 3 plates of 250 μm/1, 3 plates of 25 μm/1, 3 plates of 1% ethanol, and 3 plates of untreated agar were inoculated using an agar plug cut with a no. 3 cork borer from the margin of an actively-growing culture on agar. The plates were incubated at an appropriate temperature (usually 18-20° C.) in darkness. The growth rate was monitored and assessed after 5-7 days. The growth was assessed by measuring colony diameters minus plug (two measurements at right-angles) per plate. The percent reduction was calculated with respect to the control.
(§6) Pure thiabendazole (TBZ; 0.5 g) obtained from MSD Agvet (Rahway, N.J.) was dissolved in water (10 mL) by adding the minimum required volume (c. 0.5 mL) of hypophosphorous acid and heating gently with stirring, then made up to 100 mL with water to give a stock solution (25 mM). TBZ docusate (0.155 g) or TBZ stearate (0.121 g) was dissolved in ethanol (100 ml) to give stock solutions (25 mM). A ten-fold dilution of each of these stock solutions was prepared (in water for TBZ and in ethanol for TBZ docusate and stearate). […] In addition, agar with 1% v/v ethanol and unamended agar was prepared (ethanol and unamended controls). The agar was poured into Petri plates (9 cm) and allowed to set.
(§7) Isolates of the appropriate potato tuber pathogens were grown on PDA for Fusarium spp. and Phytophthora erythroseptica or on MA for Phoma spp. Each isolate to be tested was inoculated onto three replicate plates of the two concentrations of each compound and onto ethanol and unamended agar controls using plugs (6 mm diameter) cut from the margins of actively growing cultures. Plates were incubated in darkness at 20° C. and mycelial growth measured (two measurements at right-angles for each plate) after 5-7 days (depending on the growth rates).

F. coeruleum [5] = test: as above; details: Trial A; for Inhibition (%) of mycelial growth: isolate F. coeruleum ex B7/06 T8
Procedure: as §3, §4, §5, §6, §7

P. foveata = test: as above; details: Trial A; for Inhibition (%) of mycelial growth: isolate P. foveata BL2 05 T3
Procedure: as §3, §4, §5, §6, §7

P. exigua = test: as above; details: Trial A; for Inhibition (%) of mycelial growth: isolate P. exigua 9.1
Procedure: as §3, §4, §5, §6, §7

P. erythroseptica = test: as above; details: Trial A; for Inhibition (%) of mycelial growth: isolate P. erythroseptica BL2/08 P31
Procedure: as §3, §4, §5, §6, §7

[6] = isolate F. coeruleum ex B7/06 T8, 25 μM in agar
[7] = isolate F. coeruleum ex B7/06 T8, 250 μM in agar
[8] = isolate F. coeruleum ex B16/08 P31, 25 μM in agar
[9] = isolate F. coeruleum ex B16/08 P31, 250 μM in agar
[10] = isolate F. sambucinum L'gall 11, 25 μM in agar
[11] = isolate F. sambucinum L'gall 11, 250 μM in agar
[12] = isolate F. sambucinum L'gall 53, 25 μM in agar
[13] = isolate F. sambucinum L'gall 53, 250 μM in agar
[14] = isolate F. sambucinum ex SASA, 25 μM in agar
[15] = isolate F. sambucinum ex SASA, 250 μM in agar, vs 1% ethanol control
[16] = isolate Phytophthora erythroseptica BL2/08 P31, 25 μM in agar
[17] = isolate Phytophthora erythroseptica BL2/08 P31, 250 μM in agar
[18] = isolate Phytophthora erythroseptica Rooster Eire, 25 μM in agar
[19] = isolate Phytophthora erythroseptica Rooster Eire, 250 μM in agar

CCCCCCCCCCCCCCCCCC(=O)O.c1ccc2[nH]c(-c3cscn3)nc2c1 [TBZ stearate, thiabendazolium stearate]
Inhibition (%) of mycelial growth (F. coeruleum [1]; [6]): 99% | Inhibition (%) of mycelial growth (F. coeruleum [1]; [7]): 99% | Inhibition (%) of mycelial growth (F. coeruleum [1]; [8]): 100% | Inhibition (%) of mycelial growth (F. coeruleum [1]; [9]): 100% | Inhibition (%) of mycelial growth (F. culmorum [2]; 25 μM in agar): 100% | Inhibition (%) of mycelial growth (F. culmorum [2]; 250 μM in agar): 100% | Inhibition (%) of mycelial growth (F. sambucinum; [10]): 10% | Inhibition (%) of mycelial growth (F. sambucinum; [11]): 82% | Inhibition (%) of mycelial growth (F. sambucinum; [12]): 20% | Inhibition (%) of mycelial growth (F. sambucinum; [13]): 82% | Inhibition (%) of mycelial growth (F. sambucinum; [14]): 24% | Inhibition (%) of mycelial growth (F. sambucinum; [15]): 89% | Inhibition (%) of mycelial growth (Phoma exigua; 25 μM in agar): 95% | Inhibition (%) of mycelial growth (Phoma exigua; 250 μM in agar): 99% | Inhibition (%) of mycelial growth (Phoma foveata; 25 μM in agar): 97% | Inhibition (%) of mycelial growth (Phoma foveata; 250 μM in agar): 99% | activity against P. erythroseptica compared with thiabendazole alone ([3]; in words, Table 5): did not enhance the activity | Inhibition (%) of mycelial growth [3, 16]: 10% | Inhibition (%) of mycelial growth [3, 17]: 54% | Inhibition (%) of mycelial growth [3, 18]: 11% | Inhibition (%) of mycelial growth [3, 19]: 34%

c1ccc2[nH]c(-c3cscn3)nc2c1 [TBZ stearate, thiabendazolium stearate]
Inhibition (%) of mycelial growth (F. culmorum [4]; 25 μM in agar): 100% | Inhibition (%) of mycelial growth (F. culmorum [4]; 250 μM in agar): 100% | Inhibition (%) of mycelial growth (F. sulphureum; 25 μM in agar): 25% | Inhibition (%) of mycelial growth (F. sulphureum; 250 μM in agar): 90% | Inhibition (%) of mycelial growth (F. coeruleum [5]; 25 μM in agar): 98% | Inhibition (%) of mycelial growth (F. coeruleum [5]; 250 μM in agar): 98% | Inhibition (%) of mycelial growth (P. foveata; 25 μM in agar): 96% | Inhibition (%) of mycelial growth (P. foveata; 250 μM in agar): 99% | Inhibition (%) of mycelial growth (P. exigua; 25 μM in agar): 93% | Inhibition (%) of mycelial growth (P. exigua; 250 μM in agar): 98% | Inhibition (%) of mycelial growth (P. erythroseptica; 25 μM in agar): 2% | Inhibition (%) of mycelial growth (P. erythroseptica; 250 μM in agar): 69%

c1ccc2[nH]c(-c3cscn3)nc2c1 [TBZ, thiabendazole, reference compound]
inhibition at 25 µM (F. culmorum [4]; Fusarium culmorum, 25 μM in agar): 100% | inhibition at 250 µM (F. culmorum [4]; Fusarium culmorum, 250 μM in agar): 100% | inhibition at 25 µM (F. coeruleum [1]; [6]): 99% | inhibition at 250 µM (F. coeruleum [1]; [7]): 99% | inhibition at 25 µM (F. coeruleum [1]; [8]): 100% | inhibition at 250 µM (F. coeruleum [1]; [9]): 100% | inhibition at 25 µM (F. culmorum [2]; Fusarium culmorum, 25 μM in agar, read-out: Inhibition (%) of mycelial growth): 100% | inhibition at 250 µM (F. culmorum [2]; Fusarium culmorum, 250 μM in agar, read-out: Inhibition (%) of mycelial growth): 100% | inhibition at 25 µM (F. sambucinum; [10]): 8% | inhibition at 250 µM (F. sambucinum; [11]): 76% | inhibition at 25 µM (F. sambucinum; [12]): 19% | inhibition at 250 µM (F. sambucinum; [13]): 93% | inhibition at 25 µM (F. sambucinum; [14]): 22% | inhibition at 250 µM (F. sambucinum; [15]): 89% | inhibition at 25 µM (Phoma exigua; 25 μM in agar, read-out: Inhibition (%) of mycelial growth): 95% | inhibition at 250 µM (Phoma exigua; 250 μM in agar, read-out: Inhibition (%) of mycelial growth): 100% | inhibition at 25 µM (Phoma foveata; Boeremia foveata, 25 μM in agar, read-out: Inhibition (%) of mycelial growth): 98% | inhibition at 250 µM (Phoma foveata; Boeremia foveata, 250 μM in agar, read-out: Inhibition (%) of mycelial growth): 100% | inhibition at 25 µM [3, 16]: 4% | inhibition at 250 µM [3, 17]: 51% | inhibition at 25 µM [3, 18]: 8% | inhibition at 250 µM [3, 19]: 31% | inhibition at 25 µM (F. sulphureum; read-out: Inhibition (%) of mycelial growth, isolate F. sulphureum ex SASA, 25 μM in agar): 17% | inhibition at 250 µM (F. sulphureum; read-out: Inhibition (%) of mycelial growth, isolate F. sulphureum ex SASA, 250 μM in agar): 87% | inhibition at 25 µM (F. coeruleum [5]; read-out: Inhibition (%) of mycelial growth, isolate F. coeruleum ex B7/06 T8, 25 μM in agar): 99% | inhibition at 250 µM (F. coeruleum [5]; read-out: Inhibition (%) of mycelial growth, isolate F. coeruleum ex B7/06 T8, 250 μM in agar): 98% | inhibition at 25 µM (P. foveata; Boeremia foveata, read-out: Inhibition (%) of mycelial growth, isolate P. foveata BL2 05 T3, 25 μM in agar): 98% | inhibition at 250 µM (P. foveata; Boeremia foveata, read-out: Inhibition (%) of mycelial growth, isolate P. foveata BL2 05 T3, 250 μM in agar): 100% | inhibition at 25 µM (P. exigua; Boeremia inoxydabilis, read-out: Inhibition (%) of mycelial growth, isolate P. exigua 9.1, 25 μM in agar): 92% | inhibition at 250 µM (P. exigua; Boeremia inoxydabilis, read-out: Inhibition (%) of mycelial growth, isolate P. exigua 9.1, 250 μM in agar): 100% | inhibition at 250 µM (P. erythroseptica; Phytophthora erythroseptica, read-out: Inhibition (%) of mycelial growth, isolate P. erythroseptica BL2/08 P31, 250 μM in agar): 76% | Inhibition (%) of mycelial growth (P. erythroseptica; 25 μM in agar): 9%

thiabendazolium docusate [TBZ docusate]
Inhibition (%) of mycelial growth (F. culmorum [4]; 25 μM in agar): 100% | Inhibition (%) of mycelial growth (F. culmorum [4]; 250 μM in agar): 100% | Inhibition (%) of mycelial growth (F. coeruleum [1]; [6]): 99% | Inhibition (%) of mycelial growth (F. coeruleum [1]; [7]): 99% | Inhibition (%) of mycelial growth (F. coeruleum [1]; [8]): 100% | Inhibition (%) of mycelial growth (F. coeruleum [1]; [9]): 100% | Inhibition (%) of mycelial growth (F. culmorum [2]; 25 μM in agar): 100% | Inhibition (%) of mycelial growth (F. culmorum [2]; 250 μM in agar): 100% | Inhibition (%) of mycelial growth (F. sambucinum; [10]): 19% | Inhibition (%) of mycelial growth (F. sambucinum; [11]): 83% | Inhibition (%) of mycelial growth (F. sambucinum; [12]): 11% | Inhibition (%) of mycelial growth (F. sambucinum; [13]): 68% | Inhibition (%) of mycelial growth (F. sambucinum; [14]): 19% | Inhibition (%) of mycelial growth (F. sambucinum; [15]): 96% | Inhibition (%) of mycelial growth (Phoma exigua; 25 μM in agar): 94% | Inhibition (%) of mycelial growth (Phoma exigua; 250 μM in agar): 99% | Inhibition (%) of mycelial growth (Phoma foveata; 25 μM in agar): 95% | Inhibition (%) of mycelial growth (Phoma foveata; 250 μM in agar): 99% | Inhibition (%) of mycelial growth [3, 16]: 33% | Inhibition (%) of mycelial growth [3, 17]: 97% | Inhibition (%) of mycelial growth [3, 18]: 11% | Inhibition (%) of mycelial growth [3, 19]: 91% | Inhibition (%) of mycelial growth (F. sulphureum; 25 μM in agar): 27% | Inhibition (%) of mycelial growth (F. sulphureum; 250 μM in agar): 97% | Inhibition (%) of mycelial growth (F. coeruleum [5]; 25 μM in agar): 98% | Inhibition (%) of mycelial growth (F. coeruleum [5]; 250 μM in agar): 98% | Inhibition (%) of mycelial growth (P. foveata; 25 μM in agar): 95% | Inhibition (%) of mycelial growth (P. foveata; 250 μM in agar): 99% | Inhibition (%) of mycelial growth (P. exigua; 25 μM in agar): 90% | Inhibition (%) of mycelial growth (P. exigua; 250 μM in agar): 98% | Inhibition (%) of mycelial growth (P. erythroseptica; 25 μM in agar): 62% | Inhibition (%) of mycelial growth (P. erythroseptica; 250 μM in agar): 100%
